According to ChEMBL document CHEMBL5247620, “Lupane derivatives containing various aryl substituents in the position 3 have selective cytostatic effect in leukemic cancer cells including resistant phenotypes” (Eur J Med Chem, 2022):
Each block holds one compound with its values, some of them ahead of it. Activity calls are given as the source filed them. The rule behind the calls is not given here.

Key:
[1] = Apparent permeability across apical to basolateral side in human Caco-2 cells incubated for 2 hr by high-throughput spectrometric analysis; format: ADME, cell-based
[2] = Efflux ratio of apparent permeability from basolateral to apical side over apical to basolateral side in human Caco-2 cells incubated for 2 hr by high-throughput spectrometric analysis; format: ADME, cell-based
[3] = tested on: CCRF-CEM; assay: Induction of apoptosis in human CCRF-CEM cells assessed as decrease in Rb phosphorylation level at Ser807/811 at 5 times IC50 concentration incubated for 24 hrs by western blot assay; format: functional, cell-based
[4] = tested on: K562; assay: Cytotoxicity against human K562 cells assessed as inhibition of cell growth incubated for 72 hrs by MTS assay; format: functional, cell-based; details: K562, 72 h
[5] = Microsomal stability in human liver microsome as compound remaining at 2 uM measured after 60 mins in presence of NADPH by RF-MS analysis; format: ADME; details: liver microsomes, read-out: Stability
[6] = Cytotoxicity against human BJ cells assessed as inhibition of cell growth incubated for 72 hrs by MTS assay; format: toxicity, cell-based
[7] = Chemical stability of the compound in PBS buffer assessed as compound remaining at pH 7.4 at 2 uM measured after 60 mins by RF-MS analysis; format: physicochemical; details: read-out: Stability
[8] = Plasma stability in human assessed as compound remaining at 2 uM measured after 60 mins by RF-MS analysis; format: ADME, cell-free; details: read-out: Stability
[9] = tested on: CCRF-CEM; assay: Induction of apoptosis in human CCRF-CEM cells assessed as decrease in Rb phosphorylation level at Ser780 at 5 times IC50 concentration incubated for 24 hrs by western blot assay; format: functional, cell-based
[10] = Apparent permeability across apical to basolateral side in dog MDCK-MDR1 cells incubated for 1 hr by high-throughput spectrometric analysis; format: ADME, cell-based, Canis lupus familiaris
[11] = tested on: CEM-DNR; assay: Cytotoxicity against human CEM-DNR cells assessed as inhibition of cell growth incubated for 72 hrs by MTS assay; format: functional, cell-based
[12] = tested on: CCRF-CEM; assay: Induction of apoptosis in human CCRF-CEM cells assessed as decrease in Bcl-2 protein expression level at 5 times IC50 concentration incubated for 24 hrs by western blot assay; format: functional, cell-based
[13] = tested on: CCRF-CEM; assay: Induction of apoptosis in human CCRF-CEM cells assessed as effect on total Rb protein level at 5 times IC50 concentration incubated for 24 hrs by western blot assay; format: functional, cell-based
[14] = Cytotoxicity against human K562-Tax cells assessed as inhibition of cell growth incubated for 72 hrs by MTS assay; format: functional, cell-based
[15] = Apparent permeability across apical to basolateral side in human Caco-2 cells assessed as drug recovery incubated for 2 hr by high-throughput spectrometric analysis; format: ADME, cell-based; details: read-out: Drug recovery
[16] = tested on: CCRF-CEM; assay: Induction of apoptosis in human CCRF-CEM cells assessed as late apoptotic cells at 5 times IC50 concentration incubated for 24 hrs by annexin V FITC/propidium iodide staining based flow cytometry (reference value: 1.4 %); format: functional
[17] = tested on: CCRF-CEM; assay: Induction of cell cycle arrest in human CCRF-CEM cells assessed as accumulation of cells at G1 phase at 1 times IC50 concentration incubated for 24 to 72 hrs by propidium iodide staining based flow cytometry; format: functional; details: time 24-72 hrs
[18] = tested on: CCRF-CEM; assay: Cytotoxicity against human CCRF-CEM cells assessed as inhibition of cell growth incubated for 72 hrs by MTS assay; format: functional, cell-based
[19] = tested on: CCRF-CEM; assay: Induction of cell cycle arrest in human CCRF-CEM cells assessed as decrease of cell population at S phase at 5 times IC50 concentration incubated for 24 to 72 hrs by propidium iodide staining based flow cytometry; format: functional; details: time 24-72 hrs
[20] = Chemical stability of the compound in PBS buffer assessed as compound remaining at pH 7.4 at 2 uM measured after 120 mins by RF-MS analysis; format: physicochemical; details: read-out: Stability
[21] = tested on: CCRF-CEM; assay: Induction of apoptosis in human CCRF-CEM cells assessed as early apoptotic cells at 1 times IC50 concentration incubated for 24 hrs by annexin V FITC/propidium iodide staining based flow cytometry (reference value: 2.6 %); format: functional
[22] = tested on: A549; assay: Cytotoxicity against human A549 cells assessed as inhibition of cell growth incubated for 72 hrs by MTS assay; format: functional, cell-based; details: A549, 72 h
[23] = tested on: CCRF-CEM; assay: Induction of apoptosis in human CCRF-CEM cells assessed as effect on total Rb protein level at 1 times IC50 concentration incubated for 24 hrs by western blot assay; format: functional, cell-based
[24] = Chemical stability of the compound in PBS buffer assessed as compound remaining at pH 7.4 at 2 uM measured after 30 mins by RF-MS analysis; format: physicochemical; details: read-out: Stability
[25] = Plasma stability in human assessed as compound remaining at 2 uM measured after 15 mins by RF-MS analysis; format: ADME, cell-free; details: read-out: Stability
[26] = Apparent permeability across apical to basolateral side in dog MDCK-MDR1 cells assessed as drug recovery incubated for 1 hr by high-throughput spectrometric analysis; format: ADME, cell-based, Canis lupus familiaris; details: read-out: Drug recovery
[27] = tested on: U2OS; assay: Cytotoxicity against human U2OS cells assessed as inhibition of cell growth incubated for 72 hrs by MTS assay; format: functional, cell-based
[28] = Plasma protein binding in human assessed as fraction bound at 10 uM incubated for 4 hrs by rapid equilibrium dialysis based RF-MS analysis; format: ADME, cell-free; details: read-out: PPB (converted)
[29] = Chemical stability of the compound in PBS buffer assessed as compound remaining at pH 7.4 at 2 uM measured after 15 mins by RF-MS analysis; format: physicochemical; details: read-out: Stability
[30] = tested on: CCRF-CEM; assay: Induction of cell cycle arrest in human CCRF-CEM cells assessed as accumulation of cells at G1 phase at 5 times IC50 concentration incubated for 24 to 72 hrs by propidium iodide staining based flow cytometry; format: functional; details: time 24-72 hrs
[31] = Efflux ratio of apparent permeability from basolateral to apical side over apical to basolateral side in dog MDCK-MDR1 cells incubated for 1 hr by high-throughput spectrometric analysis; format: ADME, cell-based, Canis lupus familiaris
[32] = Plasma stability in human assessed as compound remaining at 2 uM measured after 120 mins by RF-MS analysis; format: ADME, cell-free; details: read-out: Stability
[33] = Plasma stability in human assessed as compound remaining at 2 uM measured after 30 mins by RF-MS analysis; format: ADME, cell-free; details: read-out: Stability
[34] = tested on: CCRF-CEM; assay: Induction of apoptosis in human CCRF-CEM cells assessed as decrease in cell number at 5 times IC50 concentration incubated for 24 to 74 hrs by annexin V FITC/propidium iodide staining based flow cytometry; format: functional; details: time 24-74 hrs
[35] = tested on: CCRF-CEM; assay: Induction of apoptosis in human CCRF-CEM cells assessed as viable cells at 5 times IC50 concentration incubated for 24 hrs by annexin V FITC/propidium iodide staining based flow cytometry (reference value: 96 %); format: functional
[36] = tested on: CCRF-CEM; assay: Induction of apoptosis in human CCRF-CEM cells assessed as decrease in cell number at 1 times IC50 concentration incubated for 24 to 74 hrs by annexin V FITC/propidium iodide staining based flow cytometry; format: functional; details: time 24-74 hrs
[37] = tested on: CCRF-CEM; assay: Induction of cell cycle arrest in human CCRF-CEM cells assessed as decrease of cell population at S phase at 1 times IC50 concentration incubated for 24 to 72 hrs by propidium iodide staining based flow cytometry; format: functional; details: time 24-72 hrs
[38] = Cytotoxicity against human MRC5 cells assessed as inhibition of cell growth incubated for 72 hrs by MTS assay; format: toxicity, cell-based
[39] = Microsomal stability in human liver microsome as compound remaining at 2 uM measured after 30 mins in presence of NADPH by RF-MS analysis; format: ADME; details: liver microsomes, read-out: Stability
[40] = tested on: CCRF-CEM; assay: Induction of apoptosis in human CCRF-CEM cells assessed as late apoptotic cells at 1 times IC50 concentration incubated for 24 hrs by annexin V FITC/propidium iodide staining based flow cytometry (reference value: 1.4 %); format: functional
[41] = tested on: CCRF-CEM; assay: Induction of apoptosis in human CCRF-CEM cells assessed as early apoptotic cells at 5 times IC50 concentration incubated for 24 hrs by annexin V FITC/propidium iodide staining based flow cytometry (reference value: 2.6 %); format: functional
[42] = tested on: CCRF-CEM; assay: Induction of apoptosis in human CCRF-CEM cells assessed as decrease in cyclin A protein expression level at 5 times IC50 concentration incubated for 24 hrs by western blot assay; format: functional, cell-based
[43] = tested on: CCRF-CEM; assay: Induction of apoptosis in human CCRF-CEM cells assessed as viable cells at 1 times IC50 concentration incubated for 24 hrs by annexin V FITC/propidium iodide staining based flow cytometry (reference value: 96 %); format: functional
[44] = Microsomal stability in human liver microsome as compound remaining at 2 uM measured after 15 mins in presence of NADPH by RF-MS analysis; format: ADME; details: liver microsomes, read-out: Stability
[45] = Cytotoxicity against human p53HCT116 cells assessed as inhibition of cell growth incubated for 72 hrs by MTS assay; format: functional, cell-based; details: p53HCT116, 72 h
[46] = tested on: HCT-116; assay: Cytotoxicity against human HCT-116 cells assessed as inhibition of cell growth incubated for 72 hrs by MTS assay; format: functional, cell-based; details: HCT-116, 72 h

Papp A→B at 2 h [1]: 0.053 ×10⁻⁶ cm/s | efflux ratio at 2 h [2]: 3.92 | remaining at 1 h, 2 µM [5]: 94.8% | remaining at 1 h, 2 µM [7]: 91.8% | remaining at 1 h, 2 µM [8]: 82.5% | Papp A→B at 1 h [10]: 1.73 ×10⁻⁶ cm/s | recovery at 2 h [15]: 106% | remaining at 2 h, 2 µM [20]: 96.7% | remaining at 0.5 h, 2 µM [24]: 91.7% | remaining at 0.25 h, 2 µM [25]: 97.7% | recovery at 1 h [26]: 31.5% | fraction unbound at 4 h, 10 µM [28]: 0.502 | remaining at 0.25 h, 2 µM [29]: 95.5% | efflux ratio at 1 h [31]: 7.23 | remaining at 2 h, 2 µM [32]: 71.5% | remaining at 0.5 h, 2 µM [33]: 88.7% | remaining at 0.5 h, 2 µM [39]: 107% | remaining at 0.25 h, 2 µM [44]: 108%
SMILES: C=C(C)[C@@H]1CC[C@]2(C(=O)O)CC[C@]3(C)[C@H](CC[C@@H]4[C@@]5(C)CC=C(c6cccc(N)c6)C(C)(C)[C@@H]5CC[C@]43C)[C@@H]12
Activity [3]: Active | IC50 [4]: 36 µM | IC50 at 72 h [6]: 50 µM | Activity [9]: Active | IC50 [11]: 8.9 µM | Activity [12]: Active | Activity [13]: inactive | IC50 [14]: 9 µM | Activity [16]: 1.8% | Activity [17]: Active | IC50 [18]: 1.8 µM | Activity [19]: Active | Activity [21]: 3.3% | IC50 [22]: 9.7 µM | Activity [23]: inactive | IC50 [27]: 31 µM | Activity [30]: Active | Activity [34]: Active | Activity [35]: 94.8% | Activity [36]: Active | Activity [37]: Active | IC50 at 72 h [38]: 47 µM | Activity [40]: 1.5% | Activity [41]: 3.4% | Activity [42]: Active | Activity [43]: 95.2% | IC50 [45]: 10 µM | IC50 [46]: 12 µM

Papp A→B at 2 h [1]: 2.32 ×10⁻⁶ cm/s | efflux ratio at 2 h [2]: 1.72 | remaining at 1 h, 2 µM [5]: 95.8% | remaining at 1 h, 2 µM [7]: 102% | remaining at 1 h, 2 µM [8]: 85.6% | Papp A→B at 1 h [10]: 8.84 ×10⁻⁶ cm/s | recovery at 2 h [15]: 97.5% | remaining at 2 h, 2 µM [20]: 105% | remaining at 0.5 h, 2 µM [24]: 93.5% | remaining at 0.25 h, 2 µM [25]: 90.3% | recovery at 1 h [26]: 67.6% | fraction unbound at 4 h, 10 µM [28]: 0.334 | remaining at 0.25 h, 2 µM [29]: 99.6% | efflux ratio at 1 h [31]: 1.29 | remaining at 2 h, 2 µM [32]: 86.7% | remaining at 0.5 h, 2 µM [33]: 87.4% | remaining at 0.5 h, 2 µM [39]: 97.8% | remaining at 0.25 h, 2 µM [44]: 99.3%
SMILES: C=C(C)[C@@H]1CC[C@]2(C(=O)O)CC[C@]3(C)[C@H](CC[C@@H]4[C@@]5(C)CC=C(c6cccc(O)c6)C(C)(C)[C@@H]5CC[C@]43C)[C@@H]12
Activity [3]: Active | IC50 [4]: 19 µM | IC50 at 72 h [6]: 31 µM | Activity [9]: Active | IC50 [11]: 4 µM | Activity [12]: Active | Activity [13]: inactive | IC50 [14]: 3.8 µM | Activity [16]: 5% | Activity [17]: Active | IC50 [18]: 3.9 µM | Activity [19]: Active | Activity [21]: 3.4% | IC50 [22]: 14 µM | Activity [23]: inactive | IC50 [27]: 17 µM | Activity [30]: 20% | Activity [34]: Active | Activity [35]: 89% | Activity [36]: Active | Activity [37]: Active | IC50 at 72 h [38]: 19 µM | Activity [40]: 2.1% | Activity [41]: 6% | Activity [42]: Active | Activity [43]: 94.5% | IC50 [45]: 12 µM | IC50 [46]: 4 µM
